Measured values: the supplement of paper PMC10307832

Columns and labels:
Test in all cases: relative viability (nuclei count vs DMSO), 5 days (fraction); higher = more cells survive
[1] = compound: Cn1c(Nc2ccc(C(F)(F)F)cc2)nc2cc(Oc3ccnc(-c4ncc(C(F)(F)F)[nH]4)c3)ccc21 [RAF265] + CC1(C)CCC(c2ccc(Cl)cc2)=C(CN2CCN(c3ccc(C(=O)NS(=O)(=O)c4ccc(N[C@H](CCN5CCOCC5)CSc5ccccc5)c(S(=O)(=O)C(F)(F)F)c4)cc3)CC2)C1 [Navitoclax] (partner 0.5 µM)
Method in brief: (§1)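 Lung cancer cell lines were seeded in 1536-well plates and dosed by pin tool the next day, with either a single drug or a fixed anchor-drug dose combined with five library-drug doses (not always all listed) spaced in √10 steps. Five days later, one step fixed the cells and stained their nuclei (final 0.05% Triton X-100, 1% formaldehyde, 1 ug/ml Hoechst), and nuclei were counted on 4× images. Relative viability is the nuclei count in treated wells divided by the count in vehicle wells, and each value is the median of duplicate plates.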

[2] = compound: Cn1c(Nc2ccc(C(F)(F)F)cc2)nc2cc(Oc3ccnc(-c4ncc(C(F)(F)F)[nH]4)c3)ccc21 [RAF265] + O=C(c1cc(Cc2n[nH]c(=O)c3ccccc23)ccc1F)N1CCN(C(=O)C2CC2)CC1 [Olaparib] (partner 8 µM)
Method in brief: as §1

[3] = compound: C1=CC=C2C(=C1)C=CC(=C2SSC3=C(C=CC4=CC=CC=C43)O)O [IPA-3] + CC(=O)Nc1cccc(-n2c(=O)n(C3CC3)c(=O)c3c(Nc4ccc(I)cc4F)n(C)c(=O)c(C)c32)c1 [Trametinib] (partner 0.02 µM)
Method in brief: as §1

[4] = compound: Cn1c(Nc2ccc(C(F)(F)F)cc2)nc2cc(Oc3ccnc(-c4ncc(C(F)(F)F)[nH]4)c3)ccc21 [RAF265] + N=C(N)NC(=N)NCCc1ccccc1 [Phenformin] (partner 250 µM)
Method in brief: as §1

Cell Line	relative viability ([1]; first compound 0.01 µM)	relative viability ([1]; first compound 0.03162 µM)	relative viability ([1]; first compound 0.1 µM)	relative viability ([1]; first compound 0.3162 µM)	relative viability ([1]; first compound 1 µM)	relative viability ([2]; first compound 0.01 µM)	relative viability ([2]; first compound 0.03162 µM)	relative viability ([2]; first compound 0.1 µM)	relative viability ([2]; first compound 0.3162 µM)	relative viability ([2]; first compound 1 µM)	relative viability ([3]; first compound 0.2 µM)	relative viability ([3]; first compound 0.6325 µM)	relative viability ([3]; first compound 2 µM)	relative viability ([3]; first compound 6.325 µM)	relative viability ([3]; first compound 20 µM)	relative viability ([4]; first compound 0.01 µM)	relative viability ([4]; first compound 0.03162 µM)	relative viability ([4]; first compound 0.1 µM)	relative viability ([4]; first compound 0.3162 µM)	relative viability ([4]; first compound 1 µM)
ChaGo-K-1	1.1	1	1.03	1.04	0.823	0.411	0.429	0.464	0.422	0.371	0.979	0.886	0.917	0.884	1	0.519	0.511	0.392	0.405	0.382
EBC-1	0.398	0.366	0.332	0.283	0.312	0.721	0.64	0.639	0.586	0.432	–	–	–	–	–	–	–	–	–	–
EKVX	0.939	0.916	0.957	0.606	0.637	0.806	0.866	0.966	0.646	0.653	0.403	0.314	0.359	0.38	0.376	0.266	0.249	0.248	0.186	0.19
EMC-BAC-2	1.11	1.06	1.05	0.941	0.612	0.576	0.43	0.407	0.371	0.167	0.938	0.843	0.829	0.914	0.812	0.544	0.457	0.339	0.336	0.125
EPLC-272H	1.03	0.98	0.851	0.503	0.383	0.685	0.499	0.428	0.209	0.161	0.327	0.337	0.273	0.301	0.319	0.267	0.323	0.261	0.249	0.206
H3255	0.563	0.47	0.695	0.0727	0.23	0.589	0.568	0.538	–	0.454	0.756	0.573	0.629	0.554	0.606	0.358	0.378	0.372	–	0.349
HARA	1.15	1.05	1.1	1.21	0.824	0.859	0.871	0.812	0.65	0.438	0.884	0.899	0.63	0.591	1.02	0.498	0.345	0.445	0.39	0.329
HCC-15	0.734	0.709	0.7	0.505	0.464	0.837	0.647	0.656	0.608	0.43	0.444	0.352	0.391	0.422	0.436	0.486	0.483	0.464	0.355	0.316
HCC-44	0.879	0.884	1.03	1.03	0.916	0.977	0.985	0.998	0.984	1.01	1.09	1.04	1.13	0.984	1.05	0.183	0.241	0.209	0.199	0.19
